From patent US20050107386A1, “Methods of treating diseases and disorders by targeting multiple kinases” (priority 2003, published 2005)

Assays:
Format in all cases: biochemical
[1] = molecular target: MAPK2(h) (Homo sapiens, UniProt P28482); test: MAPK2(h) kinase assay; conditions: 3 μM; percent of control kinase activity
Method: (§1) Six compounds (presumptive single agents) were tested against a panel of 50 kinases. The results are presented in Table 2; numbers for each kinase indicate the percent of control kinase activity in the presence of a 3μM concentration of the indicated agent.
(§2) Agents that target two or more different kinases are useful in the methods of the invention as described elsewhere herein. Such compounds may be identified, and their effect on certain kinases may be identified, using the assays briefly described below in Examples 4-83. Each of these assays was carried out as described in Davies et al., Biochem. J., 351:95-105 (2000). All assays were carried out at 10 μM ATP unless otherwise noted.
(§3) In a final reaction volume of 25 μl, MAPK2(h) (5-10 mU) is incubated with 25 mM Tris pH 7.5, 0.02 mM EGTA, 0.33 mg/ml myelin basic protein, 10 mM MgAcetate and [γ-^33P-ATP] (specific activity approx. 500 cpm/pmol, concentration as required). The reaction is initiated by the addition of Mg^2+ [γ-^33P-ATP]. After incubation for 40 minutes at room temperature, the reaction is stopped by the addition of 5 μl of a 3% phosphoric acid solution. 10 μl of the reaction is then spotted onto a P30 filtermat and washed three times for 5 minutes in 75 mM phosphoric acid and once in methanol prior to drying and scintillation counting.

[2] = molecular target: T1, CHK1(h) (Homo sapiens, UniProt O14757); test: CHK1(h) kinase assay; conditions: 3 μM; percent of control kinase activity
T1 sequence (O14757 1-476): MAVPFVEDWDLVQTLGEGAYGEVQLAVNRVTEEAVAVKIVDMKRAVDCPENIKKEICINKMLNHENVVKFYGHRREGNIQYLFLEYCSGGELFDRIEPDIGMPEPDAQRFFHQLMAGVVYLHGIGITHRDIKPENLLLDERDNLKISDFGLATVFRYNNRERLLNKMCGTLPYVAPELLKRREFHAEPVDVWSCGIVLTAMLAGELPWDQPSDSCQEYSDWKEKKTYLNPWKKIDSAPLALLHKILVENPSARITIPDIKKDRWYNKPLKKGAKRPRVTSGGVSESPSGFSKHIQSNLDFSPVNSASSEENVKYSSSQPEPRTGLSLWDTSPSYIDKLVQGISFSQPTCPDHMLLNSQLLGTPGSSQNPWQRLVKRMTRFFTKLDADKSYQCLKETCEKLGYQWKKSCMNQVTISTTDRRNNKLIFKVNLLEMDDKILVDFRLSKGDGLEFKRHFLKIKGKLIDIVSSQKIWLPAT
Method: as §1, §2
as §3, with “μl, CHK1(h)” for “μl, MAPK2(h)”, “with 8” for “with 25”, “mM MOPS” for “mM Tris”, “pH 7.0,0.2” for “pH 7.5, 0.02”, “mM EDTA, 200 μM […] (SEQ ID NO:5),” for “mM EGTA, 0.33 mg/ml myelin basic protein,”

[3] = molecular target: CDK6/cyclinD3(h) (Homo sapiens, UniProt Q00534); test: CDK6/cyclinD3(h) kinase assay; conditions: 3 μM; percent of control kinase activity
Method: as §1, §2
(§4) In a final reaction volume of 25 μl, CDK6/cyclinD3 (h) (5-10 mU) is incubated with 8 mM MOPS pH 7.0, 0.2 mM EDTA, 0.1 mg/ml histone H1, 10 mM MgAcetate and [γ-33p-ATP] (specific activity approx. 500 cpm/pmol, concentration as required). The reaction is initiated by the addition of Mg^2+ [γ-33P-ATP]. After incubation for 40 minutes at room temperature, the reaction is stopped by the addition of 5 μl of a 3% phosphoric acid solution. 10 μl of the reaction is then spotted onto a P30 filtermat and washed three times for 5 minutes in 75 mM phosphoric acid and once in methanol prior to drying and scintillation counting.

[4] = molecular target: Rsk1(h) (Homo sapiens, UniProt Q15418); test: Rsk1(h) kinase assay; conditions: for Inhibitory activity (% of control), Rsk1(h): 3 μM, percent of control kinase activity
[5] = molecular target: MSK1(h) (Homo sapiens, UniProt O75582); test: MSK1(h) kinase assay; conditions: 3 μM; percent of control kinase activity
Method: as §1, §2
as §4, with “MSK1” for “CDK6/cyclinD3”, “30 μM […] (SEQ ID NO:2),” for “0.1 mg/ml histone H1,”, “[γ-^33P-ATP]” for “[γ-33p-ATP]”, “[γ-^33P-ATP].” for “[γ-33P-ATP].”

[6] = molecular target: CDK1/cyclinB(h) (Homo sapiens, UniProt P06493); test: CDK1/cyclinB(h) kinase assay; conditions: for Inhibitory activity (% of control), CDK1/cyclinB(h): 3 μM, percent of control kinase activity
Method: as §1, §2
as §4, with “CDK1/cyclinB” for “CDK6/cyclinD3”, “[γ-^33p-ATP]” for “[γ-33p-ATP]”, “[γ-33 P-ATP].” for “[γ-33P-ATP].”

[7] = molecular target: PRK2(h) (Homo sapiens, UniProt Q16513); test: PRK2(h) kinase assay; conditions: 3 μM; percent of control kinase activity
Method: as §1, §2
as §3, with “μl, PRK2 (h)” for “μl, MAPK2(h)”, “with 50” for “with 25”, “7.5, 0.1” for “7.5, 0.02”, “EGTA, 0.1% β-mercaptoethanol, 30 μM […] (SEQ ID NO:12),” for “EGTA, 0.33 mg/ml myelin basic protein,”

CDK1/cyclinB(h), sequence (P06493 whole entry): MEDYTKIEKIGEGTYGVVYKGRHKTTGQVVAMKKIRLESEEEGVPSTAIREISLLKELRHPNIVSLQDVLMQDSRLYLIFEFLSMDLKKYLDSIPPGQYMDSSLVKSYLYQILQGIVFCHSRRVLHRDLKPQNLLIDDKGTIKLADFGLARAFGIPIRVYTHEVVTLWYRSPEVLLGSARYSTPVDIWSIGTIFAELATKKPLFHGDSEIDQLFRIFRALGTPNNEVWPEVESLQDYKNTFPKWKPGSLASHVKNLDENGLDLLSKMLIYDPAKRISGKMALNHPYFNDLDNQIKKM
CDK1/cyclinB(h), sequence (P14635 whole entry partner): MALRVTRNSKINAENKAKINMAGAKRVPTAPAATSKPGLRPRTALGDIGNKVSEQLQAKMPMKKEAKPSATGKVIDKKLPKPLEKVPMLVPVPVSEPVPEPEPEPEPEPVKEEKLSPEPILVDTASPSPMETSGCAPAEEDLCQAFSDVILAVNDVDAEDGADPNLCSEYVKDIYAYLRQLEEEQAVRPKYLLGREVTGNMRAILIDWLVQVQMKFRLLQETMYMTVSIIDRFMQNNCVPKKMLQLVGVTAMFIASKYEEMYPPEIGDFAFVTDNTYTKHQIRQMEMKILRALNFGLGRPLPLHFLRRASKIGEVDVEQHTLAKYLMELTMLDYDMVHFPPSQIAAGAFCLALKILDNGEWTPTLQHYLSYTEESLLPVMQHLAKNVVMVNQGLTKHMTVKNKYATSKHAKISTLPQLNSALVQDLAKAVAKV
PRK2(h), sequence (Q16513 whole entry): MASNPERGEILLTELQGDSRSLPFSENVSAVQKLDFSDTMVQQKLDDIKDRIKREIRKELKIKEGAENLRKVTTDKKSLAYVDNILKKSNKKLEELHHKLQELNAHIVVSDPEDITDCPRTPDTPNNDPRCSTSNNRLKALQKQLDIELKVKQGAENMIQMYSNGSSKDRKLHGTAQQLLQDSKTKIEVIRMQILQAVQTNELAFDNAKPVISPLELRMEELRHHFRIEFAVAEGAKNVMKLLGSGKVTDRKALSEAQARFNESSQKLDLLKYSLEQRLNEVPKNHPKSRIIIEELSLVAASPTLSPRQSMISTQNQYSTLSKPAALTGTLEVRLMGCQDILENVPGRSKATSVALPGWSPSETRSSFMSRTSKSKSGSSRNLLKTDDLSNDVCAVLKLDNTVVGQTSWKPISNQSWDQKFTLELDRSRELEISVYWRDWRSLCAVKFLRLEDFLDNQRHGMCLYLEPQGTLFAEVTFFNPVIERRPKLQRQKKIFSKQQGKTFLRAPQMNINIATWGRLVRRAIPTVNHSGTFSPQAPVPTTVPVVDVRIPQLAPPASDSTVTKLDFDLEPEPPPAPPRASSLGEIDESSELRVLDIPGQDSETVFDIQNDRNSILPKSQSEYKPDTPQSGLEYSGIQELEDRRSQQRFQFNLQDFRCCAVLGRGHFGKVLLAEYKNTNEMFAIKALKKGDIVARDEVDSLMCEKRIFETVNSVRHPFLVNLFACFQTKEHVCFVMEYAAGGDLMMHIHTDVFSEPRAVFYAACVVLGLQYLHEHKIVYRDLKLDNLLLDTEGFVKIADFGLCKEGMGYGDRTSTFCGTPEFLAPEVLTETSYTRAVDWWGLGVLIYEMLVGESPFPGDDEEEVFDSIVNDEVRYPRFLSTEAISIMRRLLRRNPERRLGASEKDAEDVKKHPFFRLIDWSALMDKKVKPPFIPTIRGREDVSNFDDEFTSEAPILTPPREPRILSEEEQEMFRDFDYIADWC
MSK1(h), sequence (O75582 whole entry): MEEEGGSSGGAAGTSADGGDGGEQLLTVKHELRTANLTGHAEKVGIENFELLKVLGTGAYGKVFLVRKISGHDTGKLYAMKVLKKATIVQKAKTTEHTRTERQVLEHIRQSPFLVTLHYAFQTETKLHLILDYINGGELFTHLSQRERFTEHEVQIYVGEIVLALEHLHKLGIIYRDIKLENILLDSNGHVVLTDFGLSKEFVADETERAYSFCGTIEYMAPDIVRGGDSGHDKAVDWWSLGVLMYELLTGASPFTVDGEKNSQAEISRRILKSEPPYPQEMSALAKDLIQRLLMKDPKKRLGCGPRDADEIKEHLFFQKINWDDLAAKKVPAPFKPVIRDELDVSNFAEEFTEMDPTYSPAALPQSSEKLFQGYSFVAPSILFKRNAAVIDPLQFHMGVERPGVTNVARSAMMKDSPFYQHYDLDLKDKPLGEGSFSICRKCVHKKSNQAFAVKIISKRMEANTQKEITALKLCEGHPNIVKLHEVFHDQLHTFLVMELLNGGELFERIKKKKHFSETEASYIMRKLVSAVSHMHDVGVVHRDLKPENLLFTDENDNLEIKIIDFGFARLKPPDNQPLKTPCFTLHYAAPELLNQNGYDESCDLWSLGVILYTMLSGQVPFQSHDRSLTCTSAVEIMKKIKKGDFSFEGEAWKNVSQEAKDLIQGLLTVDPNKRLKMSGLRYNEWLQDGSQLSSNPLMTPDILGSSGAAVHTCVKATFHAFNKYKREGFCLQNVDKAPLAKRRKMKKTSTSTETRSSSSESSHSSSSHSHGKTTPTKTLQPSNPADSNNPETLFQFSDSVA
CDK6/cyclinD3(h), sequence (Q00534 whole entry): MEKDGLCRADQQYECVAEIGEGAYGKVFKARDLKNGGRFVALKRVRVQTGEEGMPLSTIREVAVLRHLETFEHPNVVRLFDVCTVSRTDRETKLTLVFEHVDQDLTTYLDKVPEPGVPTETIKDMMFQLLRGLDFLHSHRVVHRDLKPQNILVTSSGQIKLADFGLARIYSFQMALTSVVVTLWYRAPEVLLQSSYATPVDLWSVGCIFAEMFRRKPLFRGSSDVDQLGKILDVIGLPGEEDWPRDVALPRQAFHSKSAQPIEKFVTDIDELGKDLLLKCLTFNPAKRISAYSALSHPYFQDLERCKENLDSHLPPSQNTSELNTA
CDK6/cyclinD3(h), sequence (P30281 whole entry partner): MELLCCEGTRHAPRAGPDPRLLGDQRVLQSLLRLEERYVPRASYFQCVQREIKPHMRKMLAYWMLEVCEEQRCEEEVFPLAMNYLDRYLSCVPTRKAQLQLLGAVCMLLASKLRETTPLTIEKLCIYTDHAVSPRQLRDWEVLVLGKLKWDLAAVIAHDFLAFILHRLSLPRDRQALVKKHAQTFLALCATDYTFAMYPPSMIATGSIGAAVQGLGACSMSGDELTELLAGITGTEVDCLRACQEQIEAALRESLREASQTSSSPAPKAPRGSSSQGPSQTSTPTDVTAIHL
MAPK2(h), sequence (P28482 whole entry): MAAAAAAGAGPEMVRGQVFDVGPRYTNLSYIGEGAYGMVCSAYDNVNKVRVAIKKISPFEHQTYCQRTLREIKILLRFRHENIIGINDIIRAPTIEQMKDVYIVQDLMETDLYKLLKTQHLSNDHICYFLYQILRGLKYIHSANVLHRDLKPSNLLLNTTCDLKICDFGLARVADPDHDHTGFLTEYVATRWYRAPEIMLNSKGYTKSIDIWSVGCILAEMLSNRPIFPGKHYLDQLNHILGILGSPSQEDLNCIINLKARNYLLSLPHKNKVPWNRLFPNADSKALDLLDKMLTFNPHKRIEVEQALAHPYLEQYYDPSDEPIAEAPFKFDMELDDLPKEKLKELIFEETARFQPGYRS
Rsk1(h), sequence (Q15418 whole entry): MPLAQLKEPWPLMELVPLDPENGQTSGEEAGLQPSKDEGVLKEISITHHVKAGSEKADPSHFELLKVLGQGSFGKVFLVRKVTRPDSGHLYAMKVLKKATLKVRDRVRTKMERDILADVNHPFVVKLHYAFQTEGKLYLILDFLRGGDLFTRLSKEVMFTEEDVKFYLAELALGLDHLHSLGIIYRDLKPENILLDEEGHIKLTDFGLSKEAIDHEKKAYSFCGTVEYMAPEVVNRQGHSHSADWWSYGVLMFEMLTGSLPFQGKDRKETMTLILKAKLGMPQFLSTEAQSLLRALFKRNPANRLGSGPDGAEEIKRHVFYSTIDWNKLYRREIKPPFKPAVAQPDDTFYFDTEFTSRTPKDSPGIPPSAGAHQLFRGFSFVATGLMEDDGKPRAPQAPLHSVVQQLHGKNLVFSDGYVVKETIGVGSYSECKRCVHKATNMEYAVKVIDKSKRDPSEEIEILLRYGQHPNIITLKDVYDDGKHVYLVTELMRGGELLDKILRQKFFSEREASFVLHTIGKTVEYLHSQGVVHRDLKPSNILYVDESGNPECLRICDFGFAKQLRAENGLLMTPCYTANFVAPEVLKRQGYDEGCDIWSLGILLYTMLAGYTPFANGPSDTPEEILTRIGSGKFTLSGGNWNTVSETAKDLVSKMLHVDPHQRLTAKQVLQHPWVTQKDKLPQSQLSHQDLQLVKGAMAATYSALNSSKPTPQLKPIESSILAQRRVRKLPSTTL

## CCN1CCC[C@H]1COc1ccc2cc(-c3n[nH]c4ccc(-c5nc(CC(C)(C)C)n[nH]5)cc34)ccc2c1 [CC005, 2-[((2s)-1-ethylpyrrolidin-2-yl)methoxy]-6-{5-[3-(2,2-Dimethylpropyl)(1H-1,2,4,-triazol-5-yl)](1H-indazol-3-yl)}naphthalene]
[1]
  Inhibitory activity (% of control), MAPK2(h): 2 % of control
[2]
  Inhibitory activity (% of control), CHK1(h): 6 % of control
[3]
  Inhibitory activity (% of control), CDK6/cyclinD3(h): 29 % of control
[4]
  Inhibitory activity (% of control), Rsk1(h): 2 % of control
[5]
  Inhibitory activity (% of control), MSK1(h): 25 % of control
[6]
  Inhibitory activity (% of control), CDK1/cyclinB(h): 1 % of control
[7]
  Inhibitory activity (% of control), PRK2(h): 1 % of control

## COc1ccc2cc(-c3n[nH]c4ccc(-c5n[nH]c(CN6CCOCC6)n5)cc34)ccc2c1 [CC001, 3-(6-Methoxynaphthalen-2-yl)-5-(5-Morpholin-4-Ylmethyl-1H-[1,2,4]Triazol-3-yl)-1H-Indazole]
[1]
  Inhibitory activity (% of control), MAPK2(h): 0 % of control
[2]
  Inhibitory activity (% of control), CHK1(h): 36 % of control
[3]
  Inhibitory activity (% of control), CDK6/cyclinD3(h): 82 % of control
[4]
  Inhibitory activity (% of control), Rsk1(h): 4 % of control
[5]
  Inhibitory activity (% of control), MSK1(h): 62 % of control
[6]
  Inhibitory activity (% of control), CDK1/cyclinB(h): 2 % of control
[7]
  Inhibitory activity (% of control), PRK2(h): 9 % of control

## CC(C)(C)Cc1nc(-c2ccc3[nH]nc(-c4ccc5cc(OCc6ccccn6)ccc5c4)c3c2)n[nH]1 [CC004, 5-[5-(2,2-Dimethyl-propyl)-1H-[1,2,4]triazol-3-yl]-3-[6-(pyridine-2-ylmethoxy)-naphthalen-2-yl]-1H-indazole]
[1]
  Inhibitory activity (% of control), MAPK2(h): 1 % of control
[2]
  Inhibitory activity (% of control), CHK1(h): 64 % of control
[3]
  Inhibitory activity (% of control), CDK6/cyclinD3(h): 80 % of control
[4]
  Inhibitory activity (% of control), Rsk1(h): 29 % of control
[4]; summary of Table 2
  inhibitory activity against Rsk1, in words: good inhibitory activity
[5]
  Inhibitory activity (% of control), MSK1(h): 76 % of control
[6]
  Inhibitory activity (% of control), CDK1/cyclinB(h): 1 % of control
[6]; summary of Table 2
  inhibitory activity against CDK1, in words: good inhibitory activity
[7]
  Inhibitory activity (% of control), PRK2(h): 3 % of control

## O=C(NC1CCCC1)c1cccc(-c2n[nH]c3ccc(-c4nc[nH]n4)cc23)c1 [CC007, 3-(5-(1H-1,2,4-triazol-3-yl)(1H-indazol-3-yl))phenyl-N-cyclopentylcarboxamide, reference compound]
[1]
  Inhibitory activity (% of control), MAPK2(h): 3 % of control
[2]
  Inhibitory activity (% of control), CHK1(h): 90 % of control
[3]
  Inhibitory activity (% of control), CDK6/cyclinD3(h): 87 % of control
[4]
  Inhibitory activity (% of control), Rsk1(h): 51 % of control
[5]
  Inhibitory activity (% of control), MSK1(h): 89 % of control
[6]
  Inhibitory activity (% of control), CDK1/cyclinB(h): 26 % of control
[7]
  Inhibitory activity (% of control), PRK2(h): 68 % of control

## CC(C)Cc1nc(-c2ccc3[nH]nc(-c4ccc5cc(OCCN6CCCC6)ccc5c4)c3c2)n[nH]1 [CC002, 5-(5-Isobutyl-1H-[1,2,4]Triazol-3-yl)-3-[6-(2-Pyrrolidin-1-yl-Ethoxy)-Naphthalen-2-yl]-1H-Indazole]
[1]
  Inhibitory activity (% of control), MAPK2(h): 2 % of control
[2]
  Inhibitory activity (% of control), CHK1(h): 12 % of control
[3]
  Inhibitory activity (% of control), CDK6/cyclinD3(h): 59 % of control
[4]
  Inhibitory activity (% of control), Rsk1(h): 3 % of control
[5]
  Inhibitory activity (% of control), MSK1(h): 45 % of control
[6]
  Inhibitory activity (% of control), CDK1/cyclinB(h): 2 % of control
[7]
  Inhibitory activity (% of control), PRK2(h): 4 % of control

## Fc1ccc(-c2n[nH]c3ccc(-c4n[nH]c(C5CCCC5)n4)cc23)cc1 [CC006, 5-(5-Cyclopentyl-1H-[1,2,4]triazol-3-yl)-3-(4-fluoro-phenyl)-1H-indazole, reference compound]
[1]
  Inhibitory activity (% of control), MAPK2(h): 3 % of control
[2]
  Inhibitory activity (% of control), CHK1(h): 70 % of control
[3]
  Inhibitory activity (% of control), CDK6/cyclinD3(h): 63 % of control
[4]
  Inhibitory activity (% of control), Rsk1(h): 43 % of control
[5]
  Inhibitory activity (% of control), MSK1(h): 72 % of control
[6]
  Inhibitory activity (% of control), CDK1/cyclinB(h): 3 % of control
[7]
  Inhibitory activity (% of control), PRK2(h): 24 % of control
